# Laboratory results: US20060229299A1, “5ht2c Receptor antagonists in the treatment of schizophrenia” (priority 2003, published 2006)
# Read-outs that look alike come from different tables or passages of the source.
# Legend:
# [1] = test system: 5-HT2C receptor relative to 5-HT2A and D2 receptors; assay: Relative 5-HT2C affinity (formula I, sum of 5-HT2C/5-HT2A and 5-HT2C/D2 affinity ratios)
# [2] = target: 5-HT1A receptor (Homo sapiens, UniProt P08908); conditions: cited from earlier work
# [3] = target: mACh, muscarinic acetylcholine receptor; conditions: human; cited from earlier work
# [4] = target: 5-HT6 receptor (Rattus norvegicus, UniProt P31388); conditions: cited from earlier work
# [5] = test system: 5-HT2A/D2; assay: 5-HT2A/D2 receptor affinity ratio; format: binding, human; conditions: Table 2; affinity ratio from data of Table 1
# [6] = target: H1 histamine receptor (Homo sapiens, UniProt P35367); conditions: cited from earlier work
# [7] = target: D1 dopamine receptor (Homo sapiens, UniProt P21728); conditions: cited from earlier work
# [8] = target: 5-HT3 receptor (Homo sapiens, UniProt P46098); conditions: cited from earlier work
# [9] = target: D2-L (long form of D2 receptor) (Homo sapiens, UniProt P14416); conditions: cited from earlier work
# [10] = target: D3 dopamine receptor (Homo sapiens, UniProt P35462); conditions: cited from earlier work
# [11] = target: sigma, σ receptor; conditions: human; cited from earlier work
# [12] = target: α1-adrenoceptor; conditions: human; cited from earlier work
# [13] = target: α2-adrenoceptor; conditions: human; cited from earlier work
# [14] = target: D2-S (short form of D2 receptor) (Homo sapiens, UniProt P14416); conditions: cited from earlier work
# [15] = test system: 5-HT2C/D2; assay: 5-HT2C/D2 receptor affinity ratio; format: binding, human; conditions: Table 2; affinity ratio from data of Table 1
# [16] = test system: H1/D2; assay: H1/D2 receptor affinity ratio; format: binding, human; conditions: Table 2; affinity ratio from data of Table 1
# [17] = test system: 5-HT2C/5-HT2A; assay: 5-HT2C/5-HT2A receptor affinity ratio; format: binding, human; conditions: Table 2; affinity ratio from data of Table 1
# [18] = target: 5-HT7 receptor (Rattus norvegicus, UniProt P32305); conditions: cited from earlier work
# [19] = target: 5-HT2A receptor (Homo sapiens, UniProt P28223); conditions: Table 3; expressed as pKi or pKd values; known affinities; cited from earlier work
# [20] = target: D2 receptor (Homo sapiens, UniProt P14416); conditions: Table 3; expressed as pKi or pKd values; known affinities; cited from earlier work
# [21] = target: T1, 5-HT2C receptor (Homo sapiens, UniProt P28335); conditions: active metabolite in man; U.S. Pat. No. 6,093,747; cited from earlier work
# T1 sequence (P28335 33-458): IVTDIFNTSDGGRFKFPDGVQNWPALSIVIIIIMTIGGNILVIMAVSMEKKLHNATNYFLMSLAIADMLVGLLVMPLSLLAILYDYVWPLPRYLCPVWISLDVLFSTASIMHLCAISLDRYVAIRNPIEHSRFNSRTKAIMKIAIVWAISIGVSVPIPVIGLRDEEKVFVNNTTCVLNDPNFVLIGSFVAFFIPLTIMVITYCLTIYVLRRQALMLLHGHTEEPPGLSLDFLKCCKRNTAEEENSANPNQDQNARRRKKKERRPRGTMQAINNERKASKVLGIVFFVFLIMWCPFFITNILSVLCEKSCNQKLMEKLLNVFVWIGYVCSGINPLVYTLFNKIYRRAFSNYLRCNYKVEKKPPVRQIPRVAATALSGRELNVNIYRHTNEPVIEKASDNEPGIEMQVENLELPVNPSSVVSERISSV
# [22] = target: 5-HT2C receptor (Rattus norvegicus, UniProt P08909); conditions: cited from earlier work
# [23] = target: T2, D4 dopamine receptor (Homo sapiens, UniProt P21917); conditions: cited from earlier work
# T2 sequence (P21917 1-419): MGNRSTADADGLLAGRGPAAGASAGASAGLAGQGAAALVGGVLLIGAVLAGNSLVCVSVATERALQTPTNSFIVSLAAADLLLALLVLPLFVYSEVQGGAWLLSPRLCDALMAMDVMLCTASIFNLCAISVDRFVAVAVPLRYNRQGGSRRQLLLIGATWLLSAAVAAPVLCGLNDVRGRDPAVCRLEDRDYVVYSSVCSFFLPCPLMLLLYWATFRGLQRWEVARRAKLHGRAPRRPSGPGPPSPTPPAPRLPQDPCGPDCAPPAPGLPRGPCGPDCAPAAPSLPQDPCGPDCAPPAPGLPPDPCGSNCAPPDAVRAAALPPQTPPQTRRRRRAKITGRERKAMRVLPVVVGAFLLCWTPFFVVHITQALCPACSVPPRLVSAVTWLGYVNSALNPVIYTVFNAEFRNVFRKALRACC
# [24] = target: T3, D4 dopamine receptor (Rattus norvegicus, UniProt P30729); conditions: cited from earlier work
# T3 sequence (P30729 1-387): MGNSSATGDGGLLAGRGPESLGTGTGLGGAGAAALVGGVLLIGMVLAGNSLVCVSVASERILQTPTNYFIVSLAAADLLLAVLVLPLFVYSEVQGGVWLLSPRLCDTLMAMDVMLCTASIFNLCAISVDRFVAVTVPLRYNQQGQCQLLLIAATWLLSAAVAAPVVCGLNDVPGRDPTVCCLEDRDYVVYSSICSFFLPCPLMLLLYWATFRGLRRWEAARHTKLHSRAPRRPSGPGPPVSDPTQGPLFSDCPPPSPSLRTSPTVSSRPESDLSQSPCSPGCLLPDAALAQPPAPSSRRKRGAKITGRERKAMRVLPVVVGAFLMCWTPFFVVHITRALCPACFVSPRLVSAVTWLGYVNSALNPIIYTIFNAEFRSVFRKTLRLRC
# [25] = test system: 5HT2A/2C mediated elevations of prolactin levels; conditions: known from literature; cited from earlier work
# [26] = rhesus monkeys; cited from earlier work
# [27] = parameters: key to Weight Gain: 1-high; 2-medium; 3-low probability; conditions: cited from earlier work; for Weight Gain: Table 4A, grading of probability from literature reports
# [28] = parameters: key: 1-high; 2-medium; 3-low probability; conditions: Table 4A; grading of probability from literature reports; cited from earlier work
# [29] = parameters: key: 1-high; 2-medium; 3-low probability; conditions: Table 4A; grading of probability from literature reports; cited from earlier work; remark: listed apart in the source
# [30] = Table 4A; grading of probability from literature reports; cited from earlier work
# [31] = parameters: key: 1-high; 2-medium; 3-low probability; conditions: Table 4A; grading of probability from literature reports; cited from earlier work; remark: listed apart in the source
# [32] = target: sigma, σ receptor; conditions: guinea-pig; cited from earlier work
# [33] = target: 5-HT6 receptor (Homo sapiens, UniProt P50406); conditions: cited from earlier work
# [34] = target: T4, 5-HT1A receptor (Rattus norvegicus, UniProt P19327); conditions: cited from earlier work
# T4 sequence (P19327 1-422): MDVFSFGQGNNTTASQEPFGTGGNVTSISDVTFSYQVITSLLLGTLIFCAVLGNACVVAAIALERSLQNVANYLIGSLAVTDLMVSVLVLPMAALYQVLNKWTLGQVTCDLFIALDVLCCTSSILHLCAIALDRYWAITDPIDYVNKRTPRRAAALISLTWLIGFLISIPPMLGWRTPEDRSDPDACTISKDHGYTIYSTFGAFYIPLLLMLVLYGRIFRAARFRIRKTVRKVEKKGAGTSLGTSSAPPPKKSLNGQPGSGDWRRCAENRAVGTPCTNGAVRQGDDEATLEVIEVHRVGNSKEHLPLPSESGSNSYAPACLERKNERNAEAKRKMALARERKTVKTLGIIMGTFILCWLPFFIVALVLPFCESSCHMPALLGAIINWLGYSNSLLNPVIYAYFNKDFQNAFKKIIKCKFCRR
# [35] = target: T1, 5-HT2C receptor; conditions: cited from earlier work
# [36] = target: α1-adrenoceptor; conditions: rat; cited from earlier work
# [37] = target: α2-adrenoceptor; conditions: rat; cited from earlier work
# [38] = target: mACh, muscarinic acetylcholine receptor; conditions: rat; cited from earlier work
# [39] = target: sigma, σ receptor; conditions: rat; cited from earlier work
# [40] = Table 2, sum of affinity ratios from data of Table 1
# Sequence of 5-HT6 receptor (Rattus norvegicus, UniProt P31388) (P31388 whole entry): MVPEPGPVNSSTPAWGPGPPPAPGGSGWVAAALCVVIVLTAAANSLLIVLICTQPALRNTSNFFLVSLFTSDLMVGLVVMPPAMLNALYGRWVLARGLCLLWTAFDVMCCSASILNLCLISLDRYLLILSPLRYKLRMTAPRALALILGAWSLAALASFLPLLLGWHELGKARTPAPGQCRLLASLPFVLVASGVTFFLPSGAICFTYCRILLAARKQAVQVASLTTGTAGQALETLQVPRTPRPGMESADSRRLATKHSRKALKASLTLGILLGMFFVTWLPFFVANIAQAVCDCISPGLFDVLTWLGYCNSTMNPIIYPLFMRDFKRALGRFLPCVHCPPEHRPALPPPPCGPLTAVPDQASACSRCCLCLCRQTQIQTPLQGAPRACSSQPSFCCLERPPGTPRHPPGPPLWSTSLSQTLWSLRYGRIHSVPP
# Sequence of D1 dopamine receptor (P21728 whole entry): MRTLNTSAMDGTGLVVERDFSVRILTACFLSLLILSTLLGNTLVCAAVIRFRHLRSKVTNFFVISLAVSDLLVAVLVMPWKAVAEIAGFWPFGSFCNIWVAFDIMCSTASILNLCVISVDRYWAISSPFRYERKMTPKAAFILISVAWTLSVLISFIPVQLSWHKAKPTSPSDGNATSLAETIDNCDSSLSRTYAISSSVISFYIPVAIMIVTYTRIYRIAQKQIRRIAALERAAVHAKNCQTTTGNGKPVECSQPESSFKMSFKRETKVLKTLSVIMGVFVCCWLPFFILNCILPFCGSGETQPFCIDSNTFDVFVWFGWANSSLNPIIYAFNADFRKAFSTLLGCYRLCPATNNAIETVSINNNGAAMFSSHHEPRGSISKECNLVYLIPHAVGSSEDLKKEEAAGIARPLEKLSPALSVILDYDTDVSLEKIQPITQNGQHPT
# Sequence of D3 dopamine receptor (P35462 whole entry): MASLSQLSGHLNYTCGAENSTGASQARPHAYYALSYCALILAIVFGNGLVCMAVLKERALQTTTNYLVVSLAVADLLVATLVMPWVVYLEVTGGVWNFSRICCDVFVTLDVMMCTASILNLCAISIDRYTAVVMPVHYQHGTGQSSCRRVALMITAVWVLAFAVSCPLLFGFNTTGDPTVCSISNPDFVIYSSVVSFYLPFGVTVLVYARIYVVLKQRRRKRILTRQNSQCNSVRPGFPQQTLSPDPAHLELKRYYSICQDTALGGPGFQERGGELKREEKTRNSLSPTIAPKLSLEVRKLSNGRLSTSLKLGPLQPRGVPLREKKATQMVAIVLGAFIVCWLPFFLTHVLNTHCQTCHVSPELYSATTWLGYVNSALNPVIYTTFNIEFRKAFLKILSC
# Sequence of 5-HT7 receptor (P32305 whole entry): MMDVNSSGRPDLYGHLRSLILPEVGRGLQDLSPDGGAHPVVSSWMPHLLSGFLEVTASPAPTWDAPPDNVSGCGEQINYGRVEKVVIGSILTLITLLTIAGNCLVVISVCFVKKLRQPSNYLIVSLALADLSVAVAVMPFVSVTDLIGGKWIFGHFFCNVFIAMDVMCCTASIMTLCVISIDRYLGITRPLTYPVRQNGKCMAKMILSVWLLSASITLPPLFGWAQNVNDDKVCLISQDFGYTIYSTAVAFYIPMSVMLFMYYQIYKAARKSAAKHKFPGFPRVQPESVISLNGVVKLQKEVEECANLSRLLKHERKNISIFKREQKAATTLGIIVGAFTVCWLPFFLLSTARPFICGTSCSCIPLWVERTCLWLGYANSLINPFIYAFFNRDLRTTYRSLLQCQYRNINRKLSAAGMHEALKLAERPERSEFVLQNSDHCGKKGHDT
# Sequence of H1 histamine receptor (P35367 whole entry): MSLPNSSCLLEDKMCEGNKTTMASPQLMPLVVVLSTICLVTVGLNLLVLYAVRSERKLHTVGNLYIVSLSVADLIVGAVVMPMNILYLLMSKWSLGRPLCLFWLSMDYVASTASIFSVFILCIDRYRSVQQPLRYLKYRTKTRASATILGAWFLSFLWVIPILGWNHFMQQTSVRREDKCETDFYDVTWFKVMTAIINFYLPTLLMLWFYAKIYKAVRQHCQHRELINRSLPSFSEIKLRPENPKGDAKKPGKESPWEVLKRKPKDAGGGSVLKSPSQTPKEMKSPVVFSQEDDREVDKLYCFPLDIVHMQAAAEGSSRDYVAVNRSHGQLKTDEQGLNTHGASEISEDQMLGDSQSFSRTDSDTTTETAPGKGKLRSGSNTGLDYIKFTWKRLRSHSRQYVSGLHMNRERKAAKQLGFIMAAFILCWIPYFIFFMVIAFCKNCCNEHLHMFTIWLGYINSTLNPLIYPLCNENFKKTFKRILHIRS
# Sequence of 5-HT3 receptor (P46098 24-478): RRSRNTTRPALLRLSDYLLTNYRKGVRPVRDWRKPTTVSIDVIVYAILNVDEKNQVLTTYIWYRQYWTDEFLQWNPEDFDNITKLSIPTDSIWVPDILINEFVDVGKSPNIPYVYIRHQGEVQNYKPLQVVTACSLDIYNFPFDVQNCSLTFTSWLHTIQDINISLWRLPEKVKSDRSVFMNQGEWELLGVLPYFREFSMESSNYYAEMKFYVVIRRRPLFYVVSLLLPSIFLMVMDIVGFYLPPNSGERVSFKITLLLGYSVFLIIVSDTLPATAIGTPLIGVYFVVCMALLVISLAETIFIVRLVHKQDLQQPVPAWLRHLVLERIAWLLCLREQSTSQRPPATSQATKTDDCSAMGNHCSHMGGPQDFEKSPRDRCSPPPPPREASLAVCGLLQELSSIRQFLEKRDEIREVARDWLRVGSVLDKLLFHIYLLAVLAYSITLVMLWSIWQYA
# Sequence of 5-HT2C receptor (Rattus norvegicus, UniProt P08909) (P08909 33-460): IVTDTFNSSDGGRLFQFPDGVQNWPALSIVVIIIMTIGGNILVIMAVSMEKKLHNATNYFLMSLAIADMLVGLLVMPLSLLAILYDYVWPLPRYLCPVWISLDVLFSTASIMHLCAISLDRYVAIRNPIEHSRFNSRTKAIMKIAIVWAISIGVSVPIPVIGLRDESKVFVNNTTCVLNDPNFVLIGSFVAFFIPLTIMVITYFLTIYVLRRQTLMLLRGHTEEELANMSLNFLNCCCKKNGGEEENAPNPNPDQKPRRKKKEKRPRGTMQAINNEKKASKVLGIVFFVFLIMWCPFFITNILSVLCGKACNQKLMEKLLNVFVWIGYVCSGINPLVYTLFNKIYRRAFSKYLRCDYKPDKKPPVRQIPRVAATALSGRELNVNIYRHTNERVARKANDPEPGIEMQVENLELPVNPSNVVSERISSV
# Sequence of D2 receptor (P14416 whole entry): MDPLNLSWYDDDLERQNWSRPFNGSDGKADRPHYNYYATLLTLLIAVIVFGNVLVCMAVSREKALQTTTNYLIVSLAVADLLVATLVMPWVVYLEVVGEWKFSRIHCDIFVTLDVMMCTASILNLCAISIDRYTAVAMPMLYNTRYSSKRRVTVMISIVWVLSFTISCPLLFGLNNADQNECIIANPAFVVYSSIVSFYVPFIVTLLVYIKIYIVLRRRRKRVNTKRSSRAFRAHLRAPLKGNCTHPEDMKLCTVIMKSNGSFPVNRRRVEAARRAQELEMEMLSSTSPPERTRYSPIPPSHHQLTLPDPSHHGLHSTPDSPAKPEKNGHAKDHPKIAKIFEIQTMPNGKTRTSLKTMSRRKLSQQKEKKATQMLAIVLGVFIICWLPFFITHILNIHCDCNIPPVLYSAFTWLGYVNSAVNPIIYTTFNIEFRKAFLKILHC
# Sequence of D2-L (long form of D2 receptor) (P14416 whole entry): as above
# Sequence of D2-S (short form of D2 receptor) (P14416 1-414 isoform P14416-2): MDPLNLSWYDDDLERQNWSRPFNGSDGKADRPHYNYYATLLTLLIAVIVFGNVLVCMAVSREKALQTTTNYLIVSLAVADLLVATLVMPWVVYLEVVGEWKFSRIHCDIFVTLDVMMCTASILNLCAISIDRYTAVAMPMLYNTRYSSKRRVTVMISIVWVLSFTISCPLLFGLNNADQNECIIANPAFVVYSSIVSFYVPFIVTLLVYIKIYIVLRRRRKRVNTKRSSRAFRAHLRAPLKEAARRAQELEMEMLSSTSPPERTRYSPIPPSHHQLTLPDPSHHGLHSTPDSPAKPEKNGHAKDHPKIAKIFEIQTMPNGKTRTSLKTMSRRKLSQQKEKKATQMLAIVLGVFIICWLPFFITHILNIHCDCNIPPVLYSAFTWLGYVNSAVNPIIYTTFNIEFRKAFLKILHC
# Sequence of 5-HT6 receptor (Homo sapiens, UniProt P50406) (P50406 whole entry): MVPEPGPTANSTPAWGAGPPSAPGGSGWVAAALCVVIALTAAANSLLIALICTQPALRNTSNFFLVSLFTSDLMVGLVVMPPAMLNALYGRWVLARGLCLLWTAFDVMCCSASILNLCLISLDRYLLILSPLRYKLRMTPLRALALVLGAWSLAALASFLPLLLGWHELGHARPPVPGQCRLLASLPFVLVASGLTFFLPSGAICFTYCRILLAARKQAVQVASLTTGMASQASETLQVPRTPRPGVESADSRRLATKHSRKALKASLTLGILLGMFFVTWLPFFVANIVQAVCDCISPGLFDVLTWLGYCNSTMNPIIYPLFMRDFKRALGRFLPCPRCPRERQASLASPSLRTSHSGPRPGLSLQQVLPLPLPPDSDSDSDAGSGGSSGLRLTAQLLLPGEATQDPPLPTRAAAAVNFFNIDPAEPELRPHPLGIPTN
# Sequence of 5-HT2A receptor (P28223 whole entry): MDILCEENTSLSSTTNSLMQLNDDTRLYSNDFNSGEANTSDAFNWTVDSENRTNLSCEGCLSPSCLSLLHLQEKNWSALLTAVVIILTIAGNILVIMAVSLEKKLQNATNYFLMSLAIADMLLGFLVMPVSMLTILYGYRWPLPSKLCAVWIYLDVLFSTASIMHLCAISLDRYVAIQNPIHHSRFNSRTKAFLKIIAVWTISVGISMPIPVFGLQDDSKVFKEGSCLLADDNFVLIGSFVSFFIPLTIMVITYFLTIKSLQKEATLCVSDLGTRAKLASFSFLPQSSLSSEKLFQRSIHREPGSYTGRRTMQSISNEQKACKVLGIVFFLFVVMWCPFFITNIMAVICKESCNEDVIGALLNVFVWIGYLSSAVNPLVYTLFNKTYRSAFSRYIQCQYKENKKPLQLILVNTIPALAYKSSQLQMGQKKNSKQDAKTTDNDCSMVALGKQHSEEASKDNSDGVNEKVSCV
structure (smiles),measurement,setting,value
CCNC(=O)N1CCN(CCCC(c2ccc(F)cc2)c2ccc(F)cc2)CC1 [Amperozide],(2C/2A) + (2C/D2),[1]; [40],1.67
same,5-HT1A affinity value (−logKi),[2],5.9^19
same,mACh affinity value (−logKi),[3],6.3^19
same,5-HT6 affinity value (−logKi),[4],7.2^2
same,5-HT2A/D2,[5],1.23
same,H1 affinity value (−logKi),[6],6.9^19
same,D1 affinity value (−logKi),[7],5.1^19
same,5-HT3 affinity value (−logKi),[8],<5^19
same,D2-L affinity value (−logKi),[9],6.4^3
same,D3 affinity value (−logKi),[10],6.6^3
same,sigma affinity value (−logKi),[11],6.3^19
same,α1 affinity value (−logKi),[12],6.2^19
same,α2 affinity value (−logKi),[13],5.5^19
same,D2-S affinity value (−logKi),[14],6.5^3
same,5-HT2C/D2 (2C/D2),[15],0.92
same,H1/D2,[16],1.08
same,5-HT2C/5-HT2A (2C/2A),[17],0.76
same,5-HT7 affinity value (−logKi),[18],6.3^2
"CNCCO[C@]1(c2ccccc2)C[C@H]2CC[C@]1(C)C2(C)C [N-Desmethyl-deramciclane, (1R,2S,4R)-(−)-2-phenyl-2-(methylaminoethoxy)-1,7,7-trimethyl-bicyclo[2.2.1]heptane]",Formula I Affinity Ratio,"[1]; Table 3, calculated from known 5-HT2C/5-HT2A/D2 affinities",2.20
same,5-HT2A Affinity,[19],7
same,D2 Affinity,[20],7
same,5-HT2C receptor antagonism compared with deramciclane,[21],even more pronounced 5-HT2C receptor antagonism
O=c1[nH]c2ccccc2n1C1CCN(CCCC(c2ccc(F)cc2)c2ccc(F)cc2)CC1 [Pimozide],5-HT2C affinity value (−logKi),[22],<5^1
same,5-HT6 affinity value (−logKi),[4],7.2^2
same,D4 affinity value (−logKi),[23],7.4^12
same,D4 affinity value (−logKi),[24],7.5^4
CN1CC2c3ccccc3Oc3ccc(Cl)cc3C2C1 (centres unmarked) [ORG-5222],(2C/2A) + (2C/D2),[1]; [40],2.15
same,5-HT2A/D2,[5],1.10
same,5-HT2C/D2 (2C/D2),[15],1.13
same,H1/D2,[16],1.02
same,5-HT2C/5-HT2A (2C/2A),[17],1.02
"CC(C)n1cc2c3c(cccc31)[C@H]1C[C@@H](C(=O)NC3CCCCC3)CN(C)[C@@H]1C2 [Amesergide, N-cyclohexyl-1-isopropyl-6-methyl-ergoline-8-carboxamide]",effect on 5HT2A/2C mediated elevations of prolactin levels induced by D-fenfluramine,[25],block 5HT2A/2C mediated elevations of prolactin levels
same,day of maximum values of parent compounds or metabolites (4-hydroxy and desisopropyl species),[26],35 days
same,day of minimum values of parent compounds or metabolites,[26],365 days
OCCOCCN1CCN(C2=Nc3ccccc3Sc3ccccc32)CC1 [Seroquel],Weight Gain,[27],2
same,weight gain (in words),"[27]; text b109, literature reports",do cause weight gain
same,Improvement negative symptoms,[28],3
same,Increases prolactin levels,[29],3
same,Improvement cognitive deficits,[30],2-3
same,Extra-pyramidal side effects,[31],2
O=C1NCCN1CCN1CCC(c2cn(-c3ccc(F)cc3)c3ccc(Cl)cc23)CC1 [Sertindole],(2C/2A) + (2C/D2),[1]; Table 4B,1.91
same,mACh affinity value (−logKi),[3],<5.6^19
same,Weight Gain,[27],2-3
same,sigma affinity value (−logKi),[32],6.9^6
same,D1 affinity value (−logKi),[7],6.89^19
same,5-HT6 affinity value (−logKi),[33],9.13^19
same,Improvement negative symptoms,[28],2
same,Increases prolactin levels,[29],3
same,5-HT1A affinity value (−logKi),[34],6.6^6
same,α1 affinity value (−logKi),[12],8.7^19
same,α2 affinity value (−logKi),[13],6.5^19
same,Extra-pyramidal side effects,[31],3
Cc1nc2n(c(=O)c1CCN1CCC(c3noc4cc(F)ccc34)CC1)CCCC2 [Risperidone],Weight Gain,[27],2-3
same,Improvement negative symptoms,[28],3
same,Increases prolactin levels,[29],1
same,Improvement cognitive deficits,[30],2-3
same,Extra-pyramidal side effects,[31],1
COc1cc(C(C)=O)ccc1OCCCN1CCC(c2noc3cc(F)ccc23)CC1 [Iloperidone],(2C/2A) + (2C/D2),[1]; [40],1.79
same,5-HT2C affinity value (−logKi),[35],7.4^10
same,5-HT6 affinity value (−logKi),[4],7.4^10
same,α1 affinity value (−logKi),[36],9.6^17
same,D1 affinity value (−logKi),[7],6.7^10
same,α2 affinity value (−logKi),[37],7.5^17
same,D3 affinity value (−logKi),[10],8.1^10
same,5-HT1A affinity value (−logKi),[34],6.8^18
same,mACh affinity value (−logKi),[38],<5^17
same,5-HT7 affinity value (−logKi),[18],7.7^10
same,sigma affinity value (−logKi),[39],7.5^17
